Assay results from patent US11034650B2, “Compounds useful for treating a Mannheimia haemolytica or Histophilus somni infection” (Intervet Inc., priority 2016, dated 2021).
≈ marks a conversion by molar mass, not a printed value.

Assays:
Assay type in all cases: cell-based
[1] = tested on: Mannheimia haemolytica MH 12587 (1071, BRD field isolate, macrolide-resistance: erm+, E+); assay: MIC, broth-microdilution (CLSI VET01-A4), strain MH 12587; conditions: Mannheimia haemolytica strain MH 12587, broth-microdilution; unit assumed
In short: (§1)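 Serial twofold dilutions; unaided-eye turbidity scoring; lowest clear well = MIC.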

[2] = tested on: Pasteurella multocida PM 6267 (P 2225 (L386), reference strain, mouse infection strain); assay: MIC, broth-microdilution (CLSI VET01-A4), strain PM 6267; conditions: Pasteurella multocida strain PM 6267, broth-microdilution; unit assumed
In short: as §1

[3] = tested on: Mannheimia haemolytica MH 6357 (M7/2, reference strain, cattle infection strain); assay: MIC, broth-microdilution (CLSI VET01-A4), strain MH 6357; conditions: Mannheimia haemolytica strain MH 6357, broth-microdilution; unit assumed
In short: as §1

[4] = tested on: Mannheimia haemolytica MH 13093 (XB0472-6014.1, BRD field isolate); assay: MIC, broth-microdilution (CLSI VET01-A4), strain MH 13093; conditions: Mannheimia haemolytica strain MH 13093, broth-microdilution; unit assumed
In short: as §1

[5] = tested on: Mannheimia haemolytica MH 6374 (ATCC 33396, reference strain); assay: MIC, broth-microdilution (CLSI VET01-A4), strain MH 6374; conditions: Mannheimia haemolytica strain MH 6374, broth-microdilution; unit assumed
In short: as §1

[6] = tested on: Mannheimia haemolytica MH 10720 (154, BRD field isolate); assay: MIC, broth-microdilution (CLSI VET01-A4), strain MH 10720; conditions: Mannheimia haemolytica strain MH 10720, broth-microdilution; unit assumed
In short: as §1

[7] = tested on: Pasteurella multocida PM 6391 (ATCC 43137, reference strain); assay: MIC, broth-microdilution (CLSI VET01-A4), strain PM 6391; conditions: Pasteurella multocida strain PM 6391, broth-microdilution; unit assumed
Procedure: For example, representative compounds were tested against ***, Mannheimia haemolytica and Pasteurella multocida, using the conventional broth-dilution assay.
The Minimum inhibitory concentrations (MIC) of compounds according to the invention for a number of veterinary bacterial pathogens were determined by the broth-microdilution method according to CLSI document VET01-A4.
Microdilution trays containing a doubling dilution series of the test compound were used for the tests. The MIC results were interpreted according to the CLSI documents VET01-S3. The lowest concentration of compound at which no visible growth (i.e. no turbidity) detected by the unaided eye was recorded as the MIC.

[8] = tested on: Pasteurella multocida PM 12080 (IV102277-0093, BRD field isolate); assay: MIC, broth-microdilution (CLSI VET01-A4), strain PM 12080; conditions: Pasteurella multocida strain PM 12080, broth-microdilution; unit assumed
In short: as §1

[9] = tested on: Pasteurella multocida PM 10775 (080130003051, BRD field isolate); assay: MIC, broth-microdilution (CLSI VET01-A4), strain PM 10775; conditions: Pasteurella multocida strain PM 10775, broth-microdilution; unit assumed
In short: as §1

[10] = tested on: Mannheimia haemolytica MH 13065 (XB0446-6003.9, BRD field isolate); assay: MIC, broth-microdilution (CLSI VET01-A4), strain MH 13065; conditions: Mannheimia haemolytica strain MH 13065, broth-microdilution; unit assumed
In short: as §1

Structure (SMILES) | MIC MH 12587 [1] [µg/mL] | MIC PM 6267 [2] [µg/mL] | MIC MH 6357 [3] [µg/mL] | MIC MH 13093 [4] [µg/mL] | MIC MH 6374 [5] [µg/mL] | MIC MH 10720 [6] [µg/mL] | MIC PM 6391 [7] [µg/mL] | MIC PM 12080 [8] [µg/mL] | MIC PM 10775 [9] [µg/mL] | MIC MH 13065 [10] [µg/mL]
CC(C)[C@H](NC(=O)c1ccc(C#Cc2ccc(CN3CCCCC3)cc2)cc1)C(=O)NO [Compound 166] | 6.3 (≈ 14.5 µM) | 0.2 (≈ 0.461 µM) | 3.1 (≈ 7.15 µM) | 6.3 (≈ 14.5 µM) | 6.3 (≈ 14.5 µM) | 0.8 (≈ 1.85 µM) | 0.8 (≈ 1.85 µM) | 0.4 (≈ 0.923 µM) | ≤ 0.1 | 6.3 (≈ 14.5 µM)
CC(C)[C@H](NC(=O)c1ccc(C#Cc2ccc(CNCc3cccnc3)cc2)cc1)C(=O)NO [Compound 167] | 0.8 (≈ 1.75 µM) | ≤ 0.1 | 0.4 (≈ 0.876 µM) | 0.8 (≈ 1.75 µM) | 0.4 (≈ 0.876 µM) | ≤ 0.1 | 0.4 (≈ 0.876 µM) | 0.2 (≈ 0.438 µM) | ≤ 0.1 | 0.8 (≈ 1.75 µM)
CC(C)[C@H](NC(=O)c1ccc(C#Cc2ccc(CNCc3ccnc(Cl)c3)cc2)cc1)C(=O)NO [Compound 168] | 1.6 (≈ 3.26 µM) | ≤ 0.1 | 0.4 (≈ 0.815 µM) | 0.8 (≈ 1.63 µM) | 0.8 (≈ 1.63 µM) | 0.2 (≈ 0.407 µM) | 0.4 (≈ 0.815 µM) | 0.2 (≈ 0.407 µM) | ≤ 0.1 | 0.8 (≈ 1.63 µM)
CC(C)[C@H](NC(=O)c1ccc(C#Cc2ccc(CNCc3ccccn3)cc2)cc1)C(=O)NO [Compound 169] | 1.6 (≈ 3.5 µM) | ≤ 0.1 | 0.4 (≈ 0.876 µM) | 0.8 (≈ 1.75 µM) | 0.8 (≈ 1.75 µM) | 0.2 (≈ 0.438 µM) | 0.4 (≈ 0.876 µM) | 0.4 (≈ 0.876 µM) | ≤ 0.1 | 0.8 (≈ 1.75 µM)
CC(C)[C@H](NC(=O)c1ccc(C#Cc2ccc(CNCc3ccco3)cc2)cc1)C(=O)NO [Compound 170] | 0.4 (≈ 0.898 µM) | ≤ 0.1 | 0.2 (≈ 0.449 µM) | 0.4 (≈ 0.898 µM) | 0.4 (≈ 0.898 µM) | ≤ 0.1 | 0.4 (≈ 0.898 µM) | 0.2 (≈ 0.449 µM) | ≤ 0.1 | 0.4 (≈ 0.898 µM)
CC(C)[C@H](NC(=O)c1ccc(C#Cc2ccc(CNCc3cccs3)cc2)cc1)C(=O)NO [Compound 171] | 0.8 (≈ 1.73 µM) | ≤ 0.1 | 0.2 (≈ 0.433 µM) | 0.4 (≈ 0.867 µM) | 0.4 (≈ 0.867 µM) | ≤ 0.1 | 0.2 (≈ 0.433 µM) | ≤ 0.1 | ≤ 0.1 | 0.2 (≈ 0.433 µM)
Cc1ccc(CNCc2ccc(C#Cc3ccc(C(=O)N[C@H](C(=O)NO)C(C)C)cc3)cc2)cc1 [Compound 172] | 1.6 (≈ 3.41 µM) | 0.2 (≈ 0.426 µM) | 0.4 (≈ 0.852 µM) | 0.8 (≈ 1.7 µM) | 0.8 (≈ 1.7 µM) | 0.4 (≈ 0.852 µM) | 0.4 (≈ 0.852 µM) | 0.4 (≈ 0.852 µM) | ≤ 0.1 | 0.8 (≈ 1.7 µM)
CC(C)[C@H](NC(=O)c1ccc(C#Cc2ccc(CNCc3ncc[nH]3)cc2)cc1)C(=O)NO [Compound 173] | 6.3 (≈ 14.1 µM) | ≤ 0.1 | 3.1 (≈ 6.96 µM) | 6.3 (≈ 14.1 µM) | 3.1 (≈ 6.96 µM) | 0.8 (≈ 1.8 µM) | 0.8 (≈ 1.8 µM) | 0.4 (≈ 0.898 µM) | ≤ 0.1 | 6.3 (≈ 14.1 µM)
CC[C@H](C)[C@H](NC(=O)c1ccc(C#Cc2ccc(CN3CCCC3)cc2)cc1)C(=O)NO [Compound 174] | 6.3 (≈ 14.5 µM) | 0.4 (≈ 0.923 µM) | 3.1 (≈ 7.15 µM) | 6.3 (≈ 14.5 µM) | 6.3 (≈ 14.5 µM) | 0.8 (≈ 1.85 µM) | 1.6 (≈ 3.69 µM) | 1.6 (≈ 3.69 µM) | ≤ 0.1 | 6.3 (≈ 14.5 µM)
CC[C@H](C)[C@H](NC(=O)c1ccc(C#Cc2ccc(CN3CCN(C)CC3)cc2)cc1)C(=O)NO [Compound 175] | 25 (≈ 54 µM) | 0.4 (≈ 0.865 µM) | 6.3 (≈ 13.6 µM) | 12.5 (≈ 27 µM) | 12.5 (≈ 27 µM) | 3.1 (≈ 6.7 µM) | 1.6 (≈ 3.46 µM) | 0.8 (≈ 1.73 µM) | ≤ 0.1 | 12.5 (≈ 27 µM)
CCNCc1ccc(C#Cc2ccc(C(=O)N[C@H](C(=O)NO)[C@@H](C)CC)cc2)cc1 [Compound 176] | 12.5 (≈ 30.7 µM) | 0.8 (≈ 1.96 µM) | 3.1 (≈ 7.61 µM) | 12.5 (≈ 30.7 µM) | 6.3 (≈ 15.5 µM) | 3.1 (≈ 7.61 µM) | 3.1 (≈ 7.61 µM) | 1.6 (≈ 3.93 µM) | ≤ 0.1 | 6.3 (≈ 15.5 µM)
CC[C@H](C)[C@H](NC(=O)c1ccc(C#Cc2ccc(CNCCCOC)cc2)cc1)C(=O)NO [Compound 177] | 12.5 (≈ 27.7 µM) | 0.8 (≈ 1.77 µM) | 3.1 (≈ 6.86 µM) | 6.3 (≈ 14 µM) | 6.3 (≈ 14 µM) | 1.6 (≈ 3.54 µM) | 3.1 (≈ 6.86 µM) | 1.6 (≈ 3.54 µM) | ≤ 0.1 | 6.3 (≈ 14 µM)
CC[C@H](C)[C@H](NC(=O)c1ccc(C#Cc2ccc(CN(C)CCOC)cc2)cc1)C(=O)NO [Compound 178] | 6.3 (≈ 14 µM) | 0.2 (≈ 0.443 µM) | 1.6 (≈ 3.54 µM) | 3.1 (≈ 6.86 µM) | 3.1 (≈ 6.86 µM) | 0.8 (≈ 1.77 µM) | 0.8 (≈ 1.77 µM) | 0.4 (≈ 0.886 µM) | ≤ 0.1 | 1.6 (≈ 3.54 µM)
CC[C@H](C)[C@H](NC(=O)c1ccc(C#Cc2ccc(CNCc3cccnc3)cc2)cc1)C(=O)NO [Compound 179] | 1.6 (≈ 3.4 µM) | 0.2 (≈ 0.425 µM) | 0.4 (≈ 0.85 µM) | 0.8 (≈ 1.7 µM) | 0.8 (≈ 1.7 µM) | ≤ 0.1 | 1.6 (≈ 3.4 µM) | 0.4 (≈ 0.85 µM) | ≤ 0.1 | 0.8 (≈ 1.7 µM)
CC[C@H](C)[C@H](NC(=O)c1ccc(C#Cc2ccc(CNCc3ccccn3)cc2)cc1)C(=O)NO [Compound 180] | 3.1 (≈ 6.59 µM) | 0.4 (≈ 0.85 µM) | 0.8 (≈ 1.7 µM) | 1.6 (≈ 3.4 µM) | 1.6 (≈ 3.4 µM) | 0.2 (≈ 0.425 µM) | 1.6 (≈ 3.4 µM) | 0.8 (≈ 1.7 µM) | ≤ 0.1 | 1.6 (≈ 3.4 µM)
CC[C@H](C)[C@H](NC(=O)c1ccc(C#Cc2ccc(CNCc3ccco3)cc2)cc1)C(=O)NO [Compound 181] | 1.6 (≈ 3.48 µM) | 0.4 (≈ 0.87 µM) | 0.4 (≈ 0.87 µM) | 0.8 (≈ 1.74 µM) | 0.8 (≈ 1.74 µM) | ≤ 0.1 | 0.8 (≈ 1.74 µM) | 0.4 (≈ 0.87 µM) | ≤ 0.1 | 0.8 (≈ 1.74 µM)
CC[C@H](C)[C@H](NC(=O)c1ccc(C#Cc2ccc(CNCc3cccs3)cc2)cc1)C(=O)NO [Compound 182] | 1.6 (≈ 3.36 µM) | 0.2 (≈ 0.421 µM) | 0.4 (≈ 0.841 µM) | 0.8 (≈ 1.68 µM) | 1.6 (≈ 3.36 µM) | 0.2 (≈ 0.421 µM) | 0.8 (≈ 1.68 µM) | 0.2 (≈ 0.421 µM) | ≤ 0.1 | 0.8 (≈ 1.68 µM)
CC[C@H](C)[C@H](NC(=O)c1ccc(C#Cc2ccc(CNCC3CCCO3)cc2)cc1)C(=O)NO (stereo partly drawn) [Compound 183] | 1.6 (≈ 3.45 µM) | 0.4 (≈ 0.863 µM) | 1.6 (≈ 3.45 µM) | 3.1 (≈ 6.69 µM) | 3.1 (≈ 6.69 µM) | 0.8 (≈ 1.73 µM) | 1.6 (≈ 3.45 µM) | 0.8 (≈ 1.73 µM) | ≤ 0.1 | 3.1 (≈ 6.69 µM)
CC[C@H](C)[C@H](NC(=O)c1ccc(C#Cc2ccc(CNCc3ncc[nH]3)cc2)cc1)C(=O)NO [Compound 184] | 12.5 (≈ 27.2 µM) | 0.4 (≈ 0.87 µM) | 12.5 (≈ 27.2 µM) | 6.3 (≈ 13.7 µM) | 6.3 (≈ 13.7 µM) | 0.8 (≈ 1.74 µM) | 3.1 (≈ 6.75 µM) | 1.6 (≈ 3.48 µM) | ≤ 0.1 | 6.3 (≈ 13.7 µM)
CC[C@H](C)[C@H](NC(=O)c1ccc(C#Cc2ccc(CNC(C)COC)cc2)cc1)C(=O)NO (stereo partly drawn) [Compound 185] | 6.3 (≈ 14 µM) | ≤ 0.1 | 3.1 (≈ 6.86 µM) | 6.3 (≈ 14 µM) | 6.3 (≈ 14 µM) | 0.8 (≈ 1.77 µM) | 0.8 (≈ 1.77 µM) | 0.4 (≈ 0.886 µM) | ≤ 0.1 | 3.1 (≈ 6.86 µM)
CC[C@H](C)[C@H](NC(=O)c1ccc(C#Cc2ccc(CN3CCCOCC3)cc2)cc1)C(=O)NO [Compound 186] | 6.3 (≈ 13.6 µM) | ≤ 0.1 | 1.6 (≈ 3.45 µM) | 3.1 (≈ 6.69 µM) | 6.3 (≈ 13.6 µM) | 1.6 (≈ 3.45 µM) | 0.4 (≈ 0.863 µM) | 0.2 (≈ 0.431 µM) | ≤ 0.1 | 3.1 (≈ 6.69 µM)
